The values below are quoted from earlier work in US8114906B2, “Essential fatty acids in the treatment and/or inhibition of depression in patients with coronary heart or artery disease” (Abbott Products GmbH, priority 2004, dated 2012).

The subject of series [1] is treatment resistant depression. The conditions noted are these: EPA added to treatment.
Series [2] relates to depression in post-myocardial patients. The conditions noted are these: one study.

As for `CC/C=C\C/C=C\C/C=C\C/C=C\C/C=C\CCCC(=O)OCC` [EPA, eicosapentanoic acid ethyl ester], in series [1], the “symptoms of treatment resistant depression” value is reported as “symptoms remission”.
Consider `CN[C@H]1CC[C@@H](c2ccc(Cl)c(Cl)c2)c2ccccc21` [sertraline], for which the “effects in post-myocardial patients with concomitant depression” value in series [2] is “beneficial effects”.
